The record followed here is patent EP4740946A1, “METHOD FOR TREATING PROSTATE CANCER” (Jiangsu Hengrui Pharmaceuticals Co., Ltd., priority 2023, dated 2025).

Molecules are shown by their SMILES.

Holding throughout (type): in vivo, human
In data set [1] the test system is PSA. As to the kind of experiment: Phase I clinical study, clinical effectiveness (PSA response). From the text: (§1) • Incidence, severity (graded according to CTCAE v5.0), and correlation with the study drug of adverse events (AEs) and serious adverse events (SAEs), also including abnormalities in vital signs, electrocardiogram, and laboratory tests; • PK parameters of the compound of formula I after single/multiple administrations, including but not limited to: • single administration parameters: peak plasma concentration (Cmax), time to peak (Tmax), area under the concentration-time curve from time zero to the last detectable concentration time point t (AUC0-t), area under the concentration-time curve from time zero to infinity (AUC0-inf) (if applicable), half-life (t1/2) (if applicable), apparent volume of distribution (Vz/F) (if applicable), and apparent clearance (CL/F) (if applicable); • multiple administration parameters: steady-state peak concentration (Cmax, ss), time to peak (Tmax, ss), steady-state trough concentration (Cmin, ss), area under the steady-state plasma concentration-time curve (AUCss), and drug accumulation ratio (Rac). • Pharmacokinetic (PK) of midazolam: pharmacokinetic parameters of midazolam in patients after administration of a microdose of midazolam before (D-1) and after (D15) multiple oral administrations of the compound of formula I, including: Tmax, Cmax, AUC0-t, AUCO-∞, t1/2, CL/F and Vz/F. • Efficacy endpoints: objective response rate (ORR), disease control rate (DCR), duration of response (DoR), radiographic progression-free survival (rPFS), PSA response rate at week 12, proportions of subjects with a decrease in PSA of ≧50% and ≧30% from baseline throughout study treatment, time to PSA progression, and overall survival (OS).
(§2) • Tablets were orally administered in preset dose group of 30 mg, 90 mg, 180 mg, 360 mg, 540 mg or 720 mg, with one treatment cycle every 28 days. Administration was continuous until disease progression or the occurrence of unacceptable toxicity. Tablets were orally administered once daily, within 30 minutes after breakfast each morning, for consecutive administration. If intensive PK blood sampling was scheduled on a given day, the subject was forbidden to drink water 1 h and fasted 4 h before and after drug administration.
A total of 17 subjects in the study received at least one post-baseline PSA test, with 1, 4, 9, and 3 subjects in 30 mg, 90 mg, 180 mg, and 360 mg dose groups, respectively. 8 of 17 subjects evaluable for PSA response experienced a PSA decrease.

Data set [2] can be described thus: Phase I clinical study, clinical pharmacology: food effect study (fasting vs postprandial pharmacokinetics). As to the method: as §2
There were a total of 9 patients in the food effect study.

Data set [3] is described as follows: Phase I clinical study, clinical safety (DLT, TEAEs, treatment-related AEs).
Text: • Incidence of dose limiting toxicity (DLT) • MTD (if available) and RP2D;
as §1, §2
A total of 26 tumour subjects were enrolled in this study, with 13 subjects in the dose escalation phase. There were 1, 4, 4, 3, and 1 subject(s) in 30 mg, 90 mg, 180 mg, 360 mg, and 540 mg dose groups, respectively. […] One subject was enrolled in the 540 mg dose group and remained in DLT observation, and no dose-limiting toxicity (DLT) was observed. There were 13 subjects in the dose expansion phase, and all were in the 180 mg dose group.

Where [4] appears, read: 180 mg oral administration under fasting conditions, patients with mCRPC.
The mark [5] stands for this setting: postprandial absorption compared with fasting state, food effect study.

The term half-life denotes the time needed for the level to fall by half in the phase considered. For the molecule `C[C@H]1CC2(CCN(c3ccc(C(=O)N4CCC(CN5CCN(c6cccc(N[C@H]7CCC(=O)NC7=O)c6)CC5)CC4)cc3F)CC2)CN1c1ccc(C#N)c(Cl)c1` [compound of formula I], the “subjects who experienced a PSA decrease” value in data set [1] (180 mg dose group, 6 of the 9 subjects) was determined as 66.7%. For the same molecule, in data set [1] (180 mg dose group, 9 subjects), the “subjects achieving PSA30 (a reduction in serum PSA level of ≧ 30% from baseline during treatment)” value was determined as 3 subjects and the “subjects achieving PSA90 (a reduction in serum PSA level of ≧ 90% from baseline during treatment)” value is recorded as 1 subject. The “subjects who experienced a PSA decrease” value in data set [1] (of 17 subjects evaluable for PSA response, 30 mg, 90 mg, 180 mg and 360 mg dose groups) turned out to be 8 subjects. In data set [2] (setting [4]), the “geometric mean (% geometric coefficient of variation) of apparent volume of distribution” value is on record as 1260 (90.7) L, the “geometric mean (% geometric coefficient of variation) of clearance” value is listed as 21.5 (83.4) L/h and the “median time to peak” value came out at 3 h. The half-life in data set [2] (male, human, plasma, 180 mg oral administration under fasting conditions, patients with mCRPC, food effect study (9 patients), read-out: mean half-life (± standard deviation) (converted)) was 40.8 ± 4.37 h. Moreover, in data set [2] (setting [5]), the “AUC, postprandial versus fasting state” value is listed as 2.54 fold and the “Cmax, postprandial versus fasting state” value was found to be 3.06 fold. For the same molecule, the “time to peak delayed (postprandial versus fasting)” value in data set [2] (postprandial compared with fasting state) worked out at 3 h. Further, the “time to peak, postprandial” value in data set [2] (postprandial state) is given as “about 6 h”. The “subjects who experienced AEs associated with formula I” value in data set [3] (8 of 26 subjects) is 30.8%. For the same molecule, the “subjects who experienced TEAEs” value in data set [3] (9 of 26 tumour subjects enrolled) was found to be 34.6%. Also, the “dose-limiting toxicity (DLT)” value in data set [3] (dose escalation phase, 13 subjects, 30 mg, 90 mg, 180 mg, 360 mg and 540 mg dose groups, oral once daily) is recorded as “no DLT was observed”. Also, the “grade 4/5 AE” value in data set [3] (during the study, 26 subjects) is “No grade 4/5 AE occurred”. Also, the “subjects who experienced grade 3 TRAE” value in data set [3] (one of 26 subjects, decreased neutrophil count and decreased white blood cell count) came to 3.8%. Moreover, in data set [3] (three of 26 subjects), the “subjects who experienced grade 3 TEAEs” value is reported as 11.5%.
